One series deals with blood cancer HL-60 cells. Conditions: 5 uM, cultured for 48 hours; cited from earlier work.
The subject of series [1] is novel coronavirus (SARS-COV-2). In words: Vero E6 cells plaque assay of SARS-COV-2 replication. It is filed as cell-based.
For series [2] the following is noted: intraperitoneal injection of 1 mg/kg daily for 28 days, F344 rats; cited from earlier work.
The test system of series [3] is peripheral white blood cells. Conditions: cited from earlier work.

Molecules are shown by their SMILES.

Regarding `C/C=C/C=C/C/C=C\CCCCCCCCCc1cc(O)ccc1O` [HQ17(3), 10′(Z), 13′(E), 15′(E)-Heptadecatrienyl hydroquinone], the “replication of HL-60 cells” value in the series on blood cancer HL-60 cells is “the replication of blood cancer HL-60 cells was stopped”. Besides, the “virus inhibition rate (viral plaques)” value in series [1] (10 uM HQ17(3), stock in 0.1% DMSO, Vero E6 cells, one week) was “more than 60%”. For the same compound, the concentration giving a half-maximal response (EC50) (as a rule, the concentration needed to bring the measured effect to its halfway point) in series [1] (Severe acute respiratory syndrome coronavirus 2, Vero C1008, 168 h, read-out: EC50, inhibition of SARS-COV-2 replication in cells by 50%) came out at 8.5 ± 0.96 µM. Besides, the toxicity in rats result in series [2] is “no toxicity was observed”. In addition, the “effect on peripheral white blood cells” value in series [3] (5 uM) is listed as “no effect on peripheral white blood cells”. The “toxicity on peripheral white blood cells” value in series [3] (50 uM) is recorded as “no toxicity on peripheral white blood cells was observed”.

The record behind these values is patent US20250057785A1, “APPLICATION OF 10'(Z), 13'(E), 15'(E)-HEPTADECATRIENYL HYDROQUINONE (HQ17(3)) IN TREATING CORONAVIRUS INFECTION” (National Atomic Research Institute, priority 2023, published 2025).
